Data on 2 compounds can be found in PMC7996970 (The Biochemical journal, 2020).

Test [1] deals with isocitrate dehydrogenase 1 (IDH1) (Homo sapiens, UniProt O75874, D273L/R132H). Briefly: isothermal titration calorimetry. Type of test: binding. On the technique in general: ITC needs no label: the signal is the heat of the interaction.
The target in test [2] is isocitrate dehydrogenase 1 (IDH1) (Homo sapiens, UniProt O75874, D273S). Briefly: steady-state kinetics, NADPH absorbance at […] nm. Type of test: biochemical.
The target in test [3] is isocitrate dehydrogenase 1 (IDH1) (Homo sapiens, UniProt O75874). Briefly: steady-state kinetics, NADPH absorbance at […] nm. It is filed as biochemical.
In test [4] the target is isocitrate dehydrogenase 1 (IDH1) (Homo sapiens, UniProt O75874, D273N). Nature of the test: steady-state kinetics, NADPH absorbance at […] nm. It is filed as biochemical.
The target of test [5] is isocitrate dehydrogenase 1 (IDH1) (Homo sapiens, UniProt O75874, K217M). Nature of the test: steady-state kinetics, NADPH absorbance at […] nm. It is filed as biochemical.
The target of test [6] is isocitrate dehydrogenase 1 (IDH1) (Homo sapiens, UniProt O75874, K217Q). Briefly: steady-state kinetics, NADPH absorbance at […] nm. Type of test: biochemical.
Test [7] has as its target isocitrate dehydrogenase 1 (IDH1) (Homo sapiens, UniProt O75874, D273L). Nature of the test: steady-state kinetics, NADPH absorbance at […] nm. It is filed as biochemical.

The structures appear in SMILES notation.

Sequence of isocitrate dehydrogenase 1 (IDH1) (Homo sapiens, UniProt O75874, K217Q) (O75874 2-414 K217Q): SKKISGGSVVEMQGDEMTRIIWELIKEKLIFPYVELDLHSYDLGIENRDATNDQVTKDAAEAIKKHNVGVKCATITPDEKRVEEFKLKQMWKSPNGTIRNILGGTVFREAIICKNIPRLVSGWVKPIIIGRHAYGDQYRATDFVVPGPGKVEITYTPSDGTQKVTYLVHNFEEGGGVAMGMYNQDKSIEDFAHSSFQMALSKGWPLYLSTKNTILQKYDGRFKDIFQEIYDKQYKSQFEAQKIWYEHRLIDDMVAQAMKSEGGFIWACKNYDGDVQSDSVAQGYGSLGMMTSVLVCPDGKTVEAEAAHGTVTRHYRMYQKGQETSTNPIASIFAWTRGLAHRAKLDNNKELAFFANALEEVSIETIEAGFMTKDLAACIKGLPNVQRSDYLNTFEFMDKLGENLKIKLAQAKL
Sequence of isocitrate dehydrogenase 1 (IDH1) (Homo sapiens, UniProt O75874, D273N) (O75874 2-414 D273N): as the sequence (O75874 2-414 K217Q) above, with Q216K, D272N counted along it
Sequence of isocitrate dehydrogenase 1 (IDH1) (Homo sapiens, UniProt O75874) (O75874 2-414): as the sequence (O75874 2-414 K217Q) above, with Q216K counted along it
Sequence of isocitrate dehydrogenase 1 (IDH1) (Homo sapiens, UniProt O75874, D273L) (O75874 2-414 D273L): as the sequence (O75874 2-414 K217Q) above, with Q216K, D272L counted along it
Sequence of isocitrate dehydrogenase 1 (IDH1) (Homo sapiens, UniProt O75874, D273L/R132H) (O75874 2-414 R132H/D273L): as the sequence (O75874 2-414 K217Q) above, with R131H, Q216K, D272L counted along it
Sequence of isocitrate dehydrogenase 1 (IDH1) (Homo sapiens, UniProt O75874, D273S) (O75874 2-414 D273S): as the sequence (O75874 2-414 K217Q) above, with Q216K, D272S counted along it
Sequence of isocitrate dehydrogenase 1 (IDH1) (Homo sapiens, UniProt O75874, K217M) (O75874 2-414 K217M): as the sequence (O75874 2-414 K217Q) above, with Q216M counted along it

For orientation: Kd means the free concentration of one partner at which half of the binding sites on the other are occupied at equilibrium, for simple one-to-one binding. Higher therefore signals a looser complex. In turn, `Cc1ccccc1C(C(=O)NC1CCCCC1)N(C(=O)Cn1ccnc1C)c1cccc(F)c1` (stereo not shown) [AGI-5198] returned a Kd in test [1] of 3.3 ± 0.5 µM.

By Km is commonly meant the concentration of substrate that gives half-maximal velocity. For the compound `O=C(O)CC(C(=O)O)C(O)C(=O)O` (stereo not shown) [isocitrate], the Km in test [2] stood at 12000 ± 3000 µM; in test [3], 61 ± 5 µM; in test [4], 19000 ± 2000 µM; in test [5], 150 ± 20 µM; in test [6] it was 250 ± 20 µM; in test [7], 1900 ± 200 µM.
